Measured values published in US20190365927A1, “COMPOSITION FOR PHOTODYNAMIC THERAPY USING GENE EXPRESSING FLUORESCENT PROTEIN AND PHOTOSENSITIZER, AND PHOTODYNAMIC THERAPY METHOD USING SAME” (priority 2017, published 2019).

Tests used:
[1] = tested on: GFP+ A549, RFP+ A549 and YFP+ A549 cells; experiment: In vitro PDT of GFP+, RFP+ and YFP+ cells with photosensitizer, MTT analysis; type: cell-based, human; conditions: 1 μM, blue laser light (488 nm), FIG. 20
Procedure: Photo inducing death of GFP+, RFP+, and YFP+ cells via the photosensitizer was measured by MTT analysis. The specific experimental procedure is as follows.
To investigate photo inducing death of GFP+ cells, RFP+ cells, and YFP+ cells via the photosensitizer, rose bengal, hematoporphyrin (Sigma-aldrich #5518) or 5-ALA (5-Aminolevulinic acid hydrochloric, Sigma-aldrich # A3785) was diluted with RPMI medium containing 10% FBS. 1 μM concentration of rose bengal, hematoporphyrin or 5-ALA was prepared. Further, GFP+ A549 cells, RFP+ A549 cells and YFP+ A549 cells selected from the 1-4 were pre-incubated at a density of 5×10^3 cells per well on 96-well, black, and clear bottom plates. A549 cells with pcDNA 3.1 vector injected thereto were cultured as control. Then, each of the photosensitizers as produced was applied or not applied to the preincubated cells in the preincubated cells which in turn were cultured for 4 hours. After 4 hours, the cells were washed three times with PBS buffer. Irradiation or non-irradiation of blue laser light (488 nm; radiation dose rate=2 J/cm^2) or yellow laser light (570 nm; radiation dose rate=2 J/cm^2) thereto was carried out for 5 seconds. After irradiation or non-irradiation, a fresh culture medium was added to the wells. The cells were cultured again for 24 hours. MTT analysis was then performed.

[2] = tested on: GFP cells and non-GFP cells; experiment: Peristaltic pump experiment, Hoechst 33342 and PI double staining; type: cell-based; conditions: 100 μM RB, 4 hours, flow 1 ml/min, 473 nm at 80 mW, repeated passes
Procedure: (1) Non-GFP and GFP cells were seeded in a 100 mm dish at a density of 1×10^7 cells. The next day, 100 μM of rose bengal (RB, santacruz, sc-203757) was applied thereto (in the subsequent procedure, light exposure was avoided as much as possible). A 4 mm ID×6 mm OD×1 mm wall sized transparent tube (Tygon, E-3603) was connected to an EP-1 Econo Pump (Bio-rad, 731-9001) in the dark room. A laser device was prepared.
In four hours after the RB treatment, cells were harvested using trypsin, suspended in 20 ml of the culture medium, and placed in a 50 ml tube. Using a pump, the cell solution passed through the tubing at a flow rate of 1 ml/min and was irradiated with light of 473 nm at an intensity of 80 mW. This process was repeated 2, 4, 8, and 10 times. The resulting cells were seeded in a 1-ml 12-well plate. The next day, double staining was performed to compare the death amounts of non-GFP and GFP cells with each other.
0.5×10^7 of non-GFP cells and 0.5×10^7 of GFP cells were mixed with each other (total 1×10^7). […]
PDT-treated cells were seeded onto a 12-well plate (1 mL per well) while controlling the PDT-treated cells to have a confluence of 50% or larger. […] The number of dead cells (PI-stained cells)/total number of cells*100 per cell image was calculated. Then, the cell death percentage was measured by calculating the average value between the calculated values of three cell images.

eGFP− 4T1 cells = experiment: In vitro PDT with rose bengal and blue laser light, MTT analysis; type: cell-based, Mus musculus; conditions: 473 nm laser light after RB treatment, similar conditions, FIG. 2A
Procedure: The photo inducing death of GFP− and GFP+ cells after blue light irradiation was measured by MTT analysis in the presence or absence of rose bengal (RB). The specific experimental procedure is as follows.
RB was diluted with DMEM containing 10% FBS to produce RB at concentrations of 6.25, 12.5, 25, 50, and 100 μM. GFP− and GFP+ cells were pre-incubated in 96-well, black, and clear bottom plates at a density of 2×10^4 cells per well. Then cells were incubated with RB for 4 hours. The addition of a fresh culture medium without photosensitizer to the wells was performed. This was used as an untreated control. Cells were washed 3 times with PBS buffer.
In the PDT-treated group, the cell was irradiated with blue laser light (473 nm, radiation dose rate=80 mW/cm^2) for 1 to 60 seconds. The toxicity of pure RB on GFP+ and GFP− cells was measured in the dark room. After the irradiation, the fresh culture medium was added to the wells, and cells were cultured again for 24 hours. The medium was then measured by MTT assay. […] The absorbance of the reaction solution was measured at 570 nm. Cell viability was calculated by the following equation: […]
Each experiment was performed independently. Cell death was measured by LDH analysis.
Th cells were seeded on a 24-well plate at a density of 5×10^4 per well. […] The absorbance was measured at 490 nm using a plate reader.

O=C1OC2(c3cc(I)c(O)c(I)c3Oc3c2cc(I)c(O)c3I)c2c(Cl)c(Cl)c(Cl)c(Cl)c21 [RB, rose bengal]
cell death effect, YFP+ versus GFP+ cell [1]: the cell death effect of the YFP+ cell is higher than that of GFP+ cell | death of GFP versus non-GFP cells in mixed culture [2]: only GFP cells were specifically killed | eGFP− cells killed (eGFP− 4T1 cells): 20%
